Among the data in patent US7585859B2, “PDE4B inhibitors and uses therefor” (Plexxikon, Inc., priority 2004, dated 2009) are IC50 values, retold here.

Where two headings read alike, the source gives them in different places.

The target in test [1] is T1, full-length human PDE4B2 isozyme (Homo sapiens, UniProt Q07343).
T1 construct: The full-length human PDE4B2 isozyme; His6 (N); TEV cleavage site (N); made in house; host or cells: baculovirus infected insect cells (unpurified lysate)
Nature of the test: PDE4 IC50 determination by Scintillation Proximity Assay, PDE4B2. It counts as biochemical. In outline:
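Unpurified His6-TEV-tagged full-length human PDE4B2 from baculovirus-infected insect cell lysate (2.5 μl of 50% glycerol stock/ml) hydrolysed [3H]cAMP in 50 mM Tris pH 7.5, 8.3 mM MgCl, 1.7 mM EGTA, 0.01% BSA for 30 min at 30°. Stopped with SPA beads in 18 mM ZnSO4; [3H]AMP scintillation counted, IC50 by non-linear regression.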
On the technique in general: Scintillation proximity formats need no separation of bound from free tracer.

Test [2] deals with TNF alpha production in LPS-stimulated human blood (Buffy coat). Kind of test: TNF alpha production by stimulation with LPS in whole blood cultures. The test is classed as cell-based. As to the method:
Compounds were assayed to generate IC50 numbers as described in Example 54, using the following assay protocol (see Tables 3B and 4B for compounds and results).
Protocol • 1) Obtained 20 mM DMSO aliquots of desired concentrations of compounds (see Tables 3B and 4B for compounds tested and results). Placed 2 μl/well compound in DMSO in the top row of the dilution plate. Added 98 μl of RPMI 1640 media w/2.5% heat inactivated FBS.
2) Made the same media with 2% DMSO in it. Added 60 μl/well to well to make compound titration. Took 30 μl of top row and did a 1:3 dilution down the plate. In column 11 added 4 wells of 50 μM roflumilast and piclamilast. In column 12 added 2% DMSO media.
3) Transfered 20 μl/well into assay plates in duplicate.
4) Obtained human Buffy coat.
5) Diluted blood with 7 volumes of RPMI 1640 media with 1% P/S and 2.5% heat inactivated FBS (a 1:8 dilution)
6) Added160 μl/well of diluted blood to the assay plates.
7) Incubated for 1 hour at 37 degrees 5% CO2
8) Diluted LPS (which was already diluted to 1 mg/ml in PBS, 20 μl aliquots frozen −20 C.) to 10× desired final concentration to make a […] dilution (final concentration should be 100 ng/ml).
9) After 1 hour incubation added 20 μl/well of LPS to plates. A non-LPS treated background was also prepared. Samples were put on the shaker for a one minute 900 rpm.
10) Incubated for 4 hours in incubator.
11) After incubation, put on the shaker for a one minute 900 rpm and spun plate at 100 g for 10 minutes, Decel 5.
12) Carefully pipetted the top 75 μl supernatant into a new plate. Samples were frozen as needed.
Biosource hu-TNF ALPHA ELISA
• REAGENTS USED • DPBS 10×: VWR45000-428 (dilute 1:10 with Millipore Water) • TWEEN 20: FISHER BP337-500 • CAPTURE AND DETECTION ANTIBODIES: R&D DY510E • STREP-HRP: Biosource part SNN4004X • COLOR REAGENTS: R&D DY994 • STOP SOLUTION: from chemistry, or R&D DY999 • 1) Thawed samples to RT as needed. • 2) Added 50 μl Incubation buffer/well. • 3) Added 50 μl blood samples +50 μl Diluent buffer • 4) Incubated 2 hours at room temp. • 5) Washed the plate 4× with 300 μl/well wash buffer with microfill. Wash buffer was DPBS with 0.05% Tween pH 7.2-7.4 • 6) Added 100 μl biotinylated anti-TNFalpha • 7) Incubateed 1 hours at room temp. • 8) Washed the plate 4× with 300 μl/well wash buffer with microfill. Wash buffer was DPBS with 0.05% Tween pH 7.2-7.4 • 9) Added^100 μl Streptavidin-HRP working solution • 10) Incubated for 30 minutes at room temp. • 11) Washed the plate 4× with 300 μl/well wash buffer with microfill. Wash buffer was DPBS with 0.05% Tween pH 7.2-7.4 • 12) Added 100 μl Chromagen • 13) Incubated in the dark for 30 minutes until the blue color developed satisfactorily. • 14) Added 100 μl/well stop solution (2 N H2SO4). • 15) Read plate on WallacVictor at 450 nm for 0.1 sec/well

Where [3] appears, read: Table 1B, Formula I compounds, read-out: IC50 PDE4B2.
Setting [4] is: Homo sapiens, Table 1B, Formula I compounds, read-out: IC50 h TNFα.
[5] abbreviates: human whole blood, LPS 100 ng/ml, read-out: IC 50 vs. indicated assay h TNFα.
The mark [6] stands for this setting: second part of Table 2B (2-23 to 2-103), column 4, column is PDE4B2 in first part, read-out: IC 50 vs. indicated assay h TNFα.

T1 sequence (Q07343 1-564 isoform Q07343-2): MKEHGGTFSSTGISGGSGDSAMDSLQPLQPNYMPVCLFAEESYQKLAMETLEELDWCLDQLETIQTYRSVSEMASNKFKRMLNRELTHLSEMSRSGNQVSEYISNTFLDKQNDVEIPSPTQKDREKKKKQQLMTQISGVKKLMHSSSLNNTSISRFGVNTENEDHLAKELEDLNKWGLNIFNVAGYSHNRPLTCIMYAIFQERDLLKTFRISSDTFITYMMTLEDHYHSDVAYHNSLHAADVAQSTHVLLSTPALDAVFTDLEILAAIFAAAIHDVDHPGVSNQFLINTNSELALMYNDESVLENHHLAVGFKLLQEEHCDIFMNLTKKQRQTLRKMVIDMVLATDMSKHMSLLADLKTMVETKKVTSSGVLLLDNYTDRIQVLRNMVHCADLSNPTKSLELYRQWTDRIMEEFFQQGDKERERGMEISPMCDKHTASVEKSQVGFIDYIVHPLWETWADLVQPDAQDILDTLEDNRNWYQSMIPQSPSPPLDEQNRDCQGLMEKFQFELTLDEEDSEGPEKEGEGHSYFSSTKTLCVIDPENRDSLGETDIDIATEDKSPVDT

With `N#Cc1c(Nc2ccccc2)sc(C(=O)C2CC2)c1N` [Compound 1-28, 4-Amino-5-cyclopropanecarbonyl-2-phenylamino-thiophene-3-carbonitrile], the IC50 in test [1] (setting [3]) and in test [2] (setting [4]) was less than 10 µM each time.

For the compound `COc1ccc(C(=O)c2sc(Nc3ccccc3)c(C#N)c2N)cc1` [Compound 1-31], the IC50 in test [1] (setting [3]) and in test [2] (setting [4]) was less than 10 µM each time.

For the compound `CCOC(=O)c1c(NC2CCCC2)sc(C(=O)c2ccc(OC)cc2)c1N` [Compound 1-191, 4-Amino-2-cyclopentylamino-5-(4-methoxy-benzoyl)-thiophene-3-carboxylic acid ethyl ester], the results for the IC50 in test [1] (setting [3]) and in test [2] (setting [4]) were less than 10 µM and greater than 10 µM, respectively.

`N#Cc1c(Nc2ccccc2)sc(C(=O)c2cc(-c3ccccc3)no2)c1N` [Compound 1-192, 4-Amino-2-phenylamino-5-(3-phenyl-isoxazole-5-carbonyl)-thiophene-3-carbonitrile]: the IC50 in test [1] (setting [3]) and in test [2] (setting [4]) was less than 10 µM in each case.

Take `CC(C)Nc1sc(C(=O)c2cc(-c3ccccc3)no2)c(N)c1C#N` [Compound 1-205, 4-Amino-2-isopropylamino-5-(3-phenyl-isoxazole-5-carbonyl)-thiophene-3-carbonitrile]: the IC50 in test [1] (setting [3]) and in test [2] (setting [4]) was greater than 10 µM each time.

For `CC(C)Nc1sc(C(=O)c2cc(-c3ccc(Cl)cc3)no2)c(N)c1C#N` [Compound 1-212, 4-Amino-5-[3-(4-chloro-phenyl)-isoxazole-5-carbonyl]-2-isopropylamino-thiophene-3-carbonitrile], the IC50 in test [1] (setting [3]) is less than 10 µM; in test [2] (setting [4]), greater than 10 µM.

`CC(C)CNc1sc(C(=O)c2cc(-c3ccccc3)no2)c(N)c1C(N)=O` [Compound 1-236, 4-Amino-2-isobutylamino-5-(3-phenyl-isoxazole-5-carbonyl)-thiophene-3-carboxylic acid amide]: the IC50 in test [1] (setting [3]) is less than 10 µM; in test [2] (setting [4]), greater than 10 µM.

For `NC(=O)c1c(NC2CCCC2)sc(C(=O)c2cc(-c3ccccc3)no2)c1N` [Compound 1-251, 4-Amino-2-cyclopentylamino-5-(3-phenyl-isoxazole-5-carbonyl)-thiophene-3-carboxylic acid amide], the figures for the IC50 in test [1] (setting [3]) and in test [2] (setting [4]) were less than 10 µM and greater than 10 µM, respectively.

`Nc1nc(Nc2ccccc2F)sc1C(=O)c1cc(-c2ccccc2)no1` [Compound 2-6, [4-Amino-2-(2-fluoro-phenylamino)-thiazol-5-yl]-(3-phenyl-isoxazol-5-yl)-methanone]: the IC50 in test [1] (first part of Table 2B (2-1 to 2-22), read-out: IC 50 vs. indicated assay PDE4B2) was less than 10 µM; in test [2] (setting [5]) it was greater than 10 µM.

Regarding `Nc1nc(Nc2ccc(Cl)cc2)sc1C(=O)c1cccc(C(F)(F)F)c1` [Compound 2-23, [4-Amino-2-(4-chloro-phenylamino)-thiazol-5-yl]-(3-trifluoromethyl-phenyl)-methanone], the IC50 in test [1] (setting [6]) is less than 10 µM; in test [2] (setting [5]), greater than 10 µM.

For the compound `Nc1nc(NC2CCCC2)sc1C(=O)c1cccc(Cl)c1` [Compound 2-80, (4-Amino-2-cyclopentylamino-thiazol-5-yl)-(3-chloro-phenyl)-methanone], the IC50 in test [1] (setting [6]) and in test [2] (setting [5]) was less than 10 µM each time.
